{"source": "paper doi:10.64898/2026.08.16.745104v1", "about": "“C. elegans Dicer stacks with the RIG-I-like receptor DRH-1 to cleave dsRNA” (biorxiv, 2026)", "key": {"[1]": {"target": "T1, DCR-1 in the antiviral complex (AVC; DCR-1•DRH-1•RDE-4) (Caenorhabditis elegans, UniProt P34529)", "T1 construct": "three proteins co-expressed in Sf9 cells (baculovirus), StrepTrap and Superose 6 purified; ADP in DCR-1 helicase domain (Hel1/Hel2); with Dicer Related Helicase", "T1 sequence (P34529 whole entry, the tested form may be a part)": "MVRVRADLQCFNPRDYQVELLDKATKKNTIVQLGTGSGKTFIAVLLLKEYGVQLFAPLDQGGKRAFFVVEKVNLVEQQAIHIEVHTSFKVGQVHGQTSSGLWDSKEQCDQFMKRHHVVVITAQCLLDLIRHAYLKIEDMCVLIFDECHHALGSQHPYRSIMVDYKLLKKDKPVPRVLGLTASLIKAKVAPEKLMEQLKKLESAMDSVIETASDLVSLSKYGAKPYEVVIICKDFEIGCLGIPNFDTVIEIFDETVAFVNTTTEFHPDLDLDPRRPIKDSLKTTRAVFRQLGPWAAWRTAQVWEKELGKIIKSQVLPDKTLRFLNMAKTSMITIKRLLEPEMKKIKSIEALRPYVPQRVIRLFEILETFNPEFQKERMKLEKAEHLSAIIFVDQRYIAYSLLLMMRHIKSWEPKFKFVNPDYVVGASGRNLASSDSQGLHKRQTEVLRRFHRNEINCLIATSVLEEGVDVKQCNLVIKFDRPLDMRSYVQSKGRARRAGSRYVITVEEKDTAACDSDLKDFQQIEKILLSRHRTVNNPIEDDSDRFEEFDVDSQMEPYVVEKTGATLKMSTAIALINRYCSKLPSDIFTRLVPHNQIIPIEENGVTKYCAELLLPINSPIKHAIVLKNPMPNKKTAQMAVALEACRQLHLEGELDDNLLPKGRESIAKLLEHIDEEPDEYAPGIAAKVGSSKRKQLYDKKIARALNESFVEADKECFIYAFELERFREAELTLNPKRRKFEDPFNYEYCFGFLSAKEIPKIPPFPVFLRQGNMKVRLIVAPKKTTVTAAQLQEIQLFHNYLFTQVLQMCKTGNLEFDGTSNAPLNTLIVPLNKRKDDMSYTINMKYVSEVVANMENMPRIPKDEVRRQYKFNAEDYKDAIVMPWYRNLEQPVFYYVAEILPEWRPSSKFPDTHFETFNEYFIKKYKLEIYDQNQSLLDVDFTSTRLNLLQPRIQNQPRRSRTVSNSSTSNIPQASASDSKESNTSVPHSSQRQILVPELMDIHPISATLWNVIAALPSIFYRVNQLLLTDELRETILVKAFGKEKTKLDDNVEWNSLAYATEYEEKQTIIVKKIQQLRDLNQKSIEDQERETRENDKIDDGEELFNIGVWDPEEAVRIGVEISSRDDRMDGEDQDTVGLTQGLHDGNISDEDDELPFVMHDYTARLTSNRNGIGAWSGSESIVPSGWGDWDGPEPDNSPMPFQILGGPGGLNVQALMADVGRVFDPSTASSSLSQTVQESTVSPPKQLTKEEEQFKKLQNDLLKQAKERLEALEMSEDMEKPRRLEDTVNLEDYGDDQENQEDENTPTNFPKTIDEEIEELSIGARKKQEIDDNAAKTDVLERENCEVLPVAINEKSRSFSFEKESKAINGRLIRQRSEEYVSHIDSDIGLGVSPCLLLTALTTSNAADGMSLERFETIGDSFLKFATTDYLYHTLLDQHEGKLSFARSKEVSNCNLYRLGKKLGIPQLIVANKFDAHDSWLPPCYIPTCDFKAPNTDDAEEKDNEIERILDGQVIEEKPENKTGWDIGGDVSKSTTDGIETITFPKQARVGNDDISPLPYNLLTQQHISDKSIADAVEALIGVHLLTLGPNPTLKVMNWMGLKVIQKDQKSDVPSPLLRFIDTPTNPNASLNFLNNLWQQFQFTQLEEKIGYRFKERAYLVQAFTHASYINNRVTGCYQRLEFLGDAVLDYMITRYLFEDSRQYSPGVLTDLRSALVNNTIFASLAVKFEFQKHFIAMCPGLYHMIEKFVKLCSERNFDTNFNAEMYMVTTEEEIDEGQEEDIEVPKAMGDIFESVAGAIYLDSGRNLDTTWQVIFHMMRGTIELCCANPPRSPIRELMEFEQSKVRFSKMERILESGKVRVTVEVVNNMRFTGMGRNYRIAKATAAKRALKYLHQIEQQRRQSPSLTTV", "T1 sequence (G5EDI8 1-1037 partner)": "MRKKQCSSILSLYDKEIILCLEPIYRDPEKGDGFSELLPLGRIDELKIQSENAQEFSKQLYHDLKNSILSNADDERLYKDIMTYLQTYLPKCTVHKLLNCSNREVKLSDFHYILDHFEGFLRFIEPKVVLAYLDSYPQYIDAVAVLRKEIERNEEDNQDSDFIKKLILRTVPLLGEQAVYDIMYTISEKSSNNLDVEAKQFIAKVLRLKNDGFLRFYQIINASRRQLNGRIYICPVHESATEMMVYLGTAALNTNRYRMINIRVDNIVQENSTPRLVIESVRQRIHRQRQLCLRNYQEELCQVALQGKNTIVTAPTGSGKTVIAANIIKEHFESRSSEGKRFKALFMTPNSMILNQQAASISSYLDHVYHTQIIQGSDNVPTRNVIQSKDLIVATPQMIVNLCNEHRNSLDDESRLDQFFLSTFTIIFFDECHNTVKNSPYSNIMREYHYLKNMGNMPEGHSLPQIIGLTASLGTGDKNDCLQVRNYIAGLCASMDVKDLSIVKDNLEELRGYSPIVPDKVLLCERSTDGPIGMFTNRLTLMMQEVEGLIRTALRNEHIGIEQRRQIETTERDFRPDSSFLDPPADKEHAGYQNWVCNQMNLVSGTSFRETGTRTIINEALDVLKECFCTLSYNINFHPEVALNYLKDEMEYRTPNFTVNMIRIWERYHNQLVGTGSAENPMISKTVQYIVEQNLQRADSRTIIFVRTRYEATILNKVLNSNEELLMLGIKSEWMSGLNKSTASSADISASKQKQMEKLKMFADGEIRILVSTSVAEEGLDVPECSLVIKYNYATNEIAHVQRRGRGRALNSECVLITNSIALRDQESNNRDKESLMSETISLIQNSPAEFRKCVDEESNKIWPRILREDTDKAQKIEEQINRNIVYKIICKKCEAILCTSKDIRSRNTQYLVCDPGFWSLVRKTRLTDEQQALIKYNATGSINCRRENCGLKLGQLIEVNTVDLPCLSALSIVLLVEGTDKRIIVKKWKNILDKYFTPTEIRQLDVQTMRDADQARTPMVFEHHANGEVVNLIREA", "T1 sequence (G5EBF5 1-385 partner)": "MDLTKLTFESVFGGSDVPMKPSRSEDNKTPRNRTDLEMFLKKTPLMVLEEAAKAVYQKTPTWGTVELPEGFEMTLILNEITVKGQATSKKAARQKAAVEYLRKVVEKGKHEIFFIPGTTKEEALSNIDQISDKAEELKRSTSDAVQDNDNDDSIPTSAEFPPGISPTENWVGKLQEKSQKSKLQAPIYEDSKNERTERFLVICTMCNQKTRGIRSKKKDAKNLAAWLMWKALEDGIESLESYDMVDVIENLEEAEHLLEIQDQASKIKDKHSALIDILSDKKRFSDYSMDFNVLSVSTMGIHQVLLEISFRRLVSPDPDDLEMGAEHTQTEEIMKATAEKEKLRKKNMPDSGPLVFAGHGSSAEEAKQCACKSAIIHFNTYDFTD", "assay": "cryo-EM structure, […] Å", "assay_type": "binding", "conditions": "helicase nucleotide pocket between Hel1 and Hel2; Mg2+; sample incubated with 5 mM ATP and 3'ovr 106-dsRNA, pH 7.5, 20 °C"}, "[2]": {"target": "T2, DRH-1 in the antiviral complex (AVC; DCR-1•DRH-1•RDE-4) (Caenorhabditis elegans, UniProt G5EDI8)", "T2 construct": "three proteins co-expressed in Sf9 cells (baculovirus), StrepTrap and Superose 6 purified; two stacked DRH-1 helicases (DRH-1 and DRH-1*, the latter only helicase and CTD resolved); with Endoribonuclease dcr-1", "T2 sequence (G5EDI8 1-1037)": "as the sequence (G5EDI8 1-1037 partner) above", "T2 sequence (P34529 whole entry partner)": "as the sequence (P34529 whole entry, the tested form may be a part) above", "T2 sequence (G5EBF5 1-385 partner)": "as the sequence (G5EBF5 1-385 partner) above", "assay": "cryo-EM structure, […] Å", "conditions": "ATP-binding pockets of both DRH-1 helicases (DRH-1 and DRH-1*); sample incubated with 5 mM ATP and 3'ovr 106-dsRNA, pH 7.5, 20 °C"}}, "data": [{"smiles": "Nc1ncnc2c1ncn2[C@@H]1O[C@H](COP(=O)(O)OP(=O)(O)O)[C@@H](O)[C@H]1O", "note": "[ADP]", "values": [{"measurement": "cryo-EM structure, 3.0 Å", "setting": "[1]", "result": "we modeled ADP within the conserved nucleotide-binding pocket of the DCR-1 helicase"}, {"measurement": "cryo-EM structure, 3.0 Å", "setting": "[2]", "result": "ADP was also present in the ATP-binding pockets of both DRH-1 helicases"}]}]}
